{"source": "patent US9732367B2", "about": "“Cell lines” (MEDIMMUNE LIMITED, priority 2012, dated 2017)", "key": {"HEK293 c18 cells": {"tested_on": "HEK293 c18 cells", "assay": "MTS viability assay with nnAA titration in cells transfected with pylRS and tRNA", "details": "ALOC 5 mM to 0.08 mM, 5 days", "quoted_text": "Finally, to determine whether amber suppression led to cytostatic effects, 1000 HEK293 c18 cells plates in a 96 well plate and transiently transfected with pCEP4-pylRS and pOriP-9×tRNA constructs. Cells were grown in DMEM-C medium containing a titration of nnAA (ALOC) starting with 5 mM to 0.08 mM. Cell viability was assayed at the time of the transfection, and after 5 days growth using an MTS colorimetric assays (FIG. 4D)."}, "pylRS/tRNA pair": {"target": "T1, pylRS/tRNA pair (Methanosarcina mazei, UniProt Q8PWY1)", "T1 construct": "expressed in transfected cells; host or cells: HEK293 clone 3H7", "T1 sequence (Q8PWY1 whole entry)": "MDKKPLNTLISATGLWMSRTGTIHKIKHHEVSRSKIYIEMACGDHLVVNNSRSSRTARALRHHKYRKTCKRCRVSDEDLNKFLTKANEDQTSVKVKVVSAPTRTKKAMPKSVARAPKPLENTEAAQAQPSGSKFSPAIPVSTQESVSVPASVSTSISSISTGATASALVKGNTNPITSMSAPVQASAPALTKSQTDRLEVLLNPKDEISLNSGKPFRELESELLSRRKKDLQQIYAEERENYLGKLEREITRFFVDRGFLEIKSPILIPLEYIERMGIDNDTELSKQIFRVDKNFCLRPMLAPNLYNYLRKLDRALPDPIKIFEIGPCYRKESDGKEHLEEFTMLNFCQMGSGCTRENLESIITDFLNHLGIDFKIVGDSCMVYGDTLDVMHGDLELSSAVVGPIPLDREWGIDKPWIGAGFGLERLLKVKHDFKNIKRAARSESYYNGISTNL", "assay": "GFP assay: translational testing of pyrrolysine analogs as nnAAs", "assay_type": "cell-based", "details": "Formula V analogs, nnAA 2 mM, 2-3 days; for MFI: geometric mean", "source_text": "An in vitro cell based assay was developed to assess the compatibility of the pylRS/tRNA pair and the pyrrolysine analogs of the present invention (nnAAs) by and the efficiency of nnAAs integration into a target protein. For this, HEK293 cells stably expressing pylRS (3H7) were transiently transfected with plasmids for the expression of tRNApyl and a reporter construct encoding GFPY40 (containing amber codon in place of tyrosine at amino acid residue number 40 (where 1 is the initiator methionine)) using standard transfection protocols. Transfected cells were incubated with nnAAs at 2 mM for 2-3 days GFP production was analyzed qualitatively by visual inspection under the microscope. The GFP fluorescence was quantified by flow cytometry using an Accuri flow cytometer and the geometric mean of the fluorescent cells determined.\nThis cell based assay was used to determine whether the different nnAAs were suitable substrates for the pylRS and allowed its translation into a target protein. Cells expressing the PylRS/tRNApyl pair and containing a vector encoding the GFPY40 reporter gene were incubated in the presence of the nnAAs. nnAAs that are readily utilized by the PylRS/tRNApyl pair support the translation of the nnAA into the amber site of GFP and allow read-through of the gene producing full length GFP (fluorescent protein). The fluorescence intensity of the cells depends on the efficiency of nnAA incorporation. Thus, nnAAs that are poorly utilized produce weakly fluorescent or non-fluorescing cells. […] Furthermore, the relative expression levels in each sample was compared to those generated by substrates known to be efficiently utilized by pylRS."}, "[1]": {"tested_on": "background amber suppression", "assay": "Background amber suppression (GFPY40 reporter, pylRS/tRNApyl, dnnAA without nnAA)", "assay_type": "cell-based", "procedure": "The competitive assay for dnnAA inhibition in the presence of a high affinity substrate identified dnnAAs that compete for binding with to the pylRS and thus are specific inhibitors of the pylRS/tRNA. However, the decoy nnAA is intended to reduce the levels of background amber suppression in the absence of nnAA. To determine if background amber suppression levels could be reduced, we incubated cells containing the GFPY40 reporter construct and the pylRS/tRNApyl pair in medium containing one of the dnnAAs. To do this, HEK293 cells stably expressing pylRS were transiently transfected with a tRNA expression construct and the GFPY40 reporter cassette. After 3 days of incubation, cells were assayed for expression of GFP by flow cytometry and geometric mean fluorescence intensity of the samples determined. We have previously observed that cells containing the full complement of the pylRS/tRNA amber suppression system show detectable expression of the GFP reporter construct that is above what is observed in cells lacking the amber suppression system. […] To identify dnnAAs capable of reducing background amber suppression levels the transfected cells were incubated with each of the dnnAAs at 0.5 mM, 1 mM and 2 mM and GFP levels measured by flow cytometry.\nThe decrease in background amber suppression dependent GFP expression was dose dependent and improved as the dnnAA concentration increased. […] This feature is an attractive characteristic for platform development as it enables the repression of background amber suppression but the system can be activated upon addition of a strong pylRS substrate such as lys-azide. […] Their efficacy was quantified by the reduction in GFP expression relative to a control sample (not exposed to dnnAA) and the data are summarized in Table 1."}, "platform cell line [2]": {"tested_on": "platform cell line", "assay": "GFPY40 reporter activity of platform cells grown with or without dnnAA (flow cytometry)", "assay_type": "cell-based", "procedure": "(§1) To do this a platform cell line, selected for high activity of the amber suppression machinery was grown in the presence or absence of dnnAA for several passages and subsequently seeded into 96-well plates at ten cells per well and grown in the presence or absence of dnnAA (Formula VIIB.2). Each plate was incubated for several days and cells harvested, pooled and counted. […] This two fold increase in cell numbers may be due to the protective effects of the dnnAA. To examine the activity of the cells grown under these conditions, 0.5×10^6 cells pooled from each plate were seeded into a 6-well plate and transfected with a GFPY40 reporter construct in the absence of dnnAA and with lys-azide. After 24 hours the fluorescence intensity of the cells in each sample was analysed by flow cytometry. The data were gated to include single cells and plotted to display the intensity of each event (scatter plot, FIG. 16). The number of events falling within the top 10% of the GFP intensity spectrum were determined for each sample (Table 2). […] Cells from both groups were also transfected with a construct encoding wild type GFP. The same analyses were performed on this group."}, "platform cell line [3]": {"tested_on": "platform cell line", "assay": "Platform cell line grown with or without dnnAA: cell numbers", "assay_type": "cell-based", "procedure": "as §1"}, "pylRS": {"target": "T2, pylRS (Methanosarcina mazei, UniProt Q8PWY1)", "T2 construct": "expressed in transfected cells", "T2 sequence (Q8PWY1 whole entry)": "as above", "assay": "In vitro GFPY40 functional assay: dnnAA competition with lys azide in HEK293 cells stably expressing pylRS", "assay_type": "cell-based", "details": "lys azide with 0.5 mM, 1 mM and 2 mM dnnAA", "source_text": "Effective dnnAAs were identified by their ability to compete with a high affinity substrate for pylRS (lys-azide) in an in vitro assay, for their ability to reduce background amber suppression levels observed with a reporter protein, and for their ability to improve the viability and function of cells previously selected for high pylRS/tRNA activity.\nTo identify analogues that could effectively compete for pylRS binding with lys-azide, dnnAAs were first tested for function in an in vitro functional assay based on the ability of cells expressing WT pylRS and tRNApyl to introduce a nnAA at a target site in the reporter protein GFPY40. This reporter contains an amber codon in its open reading frame that, in the absence of amber suppression, generates a truncated protein that is not fluorescent. In the event of amber suppression, a full length GFP protein is generated that is detectable by fluorescence detection methods. In this assay, HEK293 cells stably expressing pylRS, were transiently transfected with a tRNA expression construct and the GFPY40 reporter cassette. Cells were then incubated with 0.5 mM lys azide in the presence or absence of different concentrations of dnnAA ranging from 0.5 mM to 2 mM. GFP fluorescence levels were then quantified by flow cytometry. For this assay the proportion of fluorescent cells in each condition was determined and plotted. As the dnnAAs are expected to compete with the nnAA (lys-azide) for pylRS/tRNA binding, an effective dnnAA should reduce or prevent the expression of full length GFP (as described above dnnAAs can be delivered by the tRNA to the amber site, but cannot propagate protein synthesis).\nA similar in vitro assay was used to gauge the effectiveness of the dnnAAs of Formula VIIB listed in Table 1 where a description of the amino acids tested and a summary of the results are shown For this assay the geometric mean fluorescence intensity of each sample was determined by flow cytometry and plotted. For each dnnAA tested control cells transfected with wild type GFP were measured as a positive control. In addition cells transfected with the reporter GFPY40 and exposed to 0.5 mM lys azide or 2 mM lys azide were used to determine maximal GFP expression levels in the absence of an inhibitor. In each case robust GFP expression levels were observed. To test whether any of the dnnAA could reduce the efficacy of GFP expression, cells were incubated in the presence of 0.5 mM, 1 mM and 2 mM […]. […] Thus, dnnAAs of the present invention can compete with the lys-azide nnAA for binding to the pylRS and interfere with the physiological mechanism of nnAA introduction. Cells transfected with the pylRS/tRNA pair and the GFPY40 reporter construct but not exposed to either lys-azide or a dnnAA were used to determine levels of background amber suppression and used as a negative control. In each case low GFP expression levels were observed."}, "[4]": {"tested_on": "CHO cells stably expressing pylRS and tRNApyl and an IgG directed against her2/neu containing an amber codon", "assay": "Growth and viability of pylRS/tRNApyl cell line treated with lys azide and dnnAA", "assay_type": "cell-based", "details": "2 mM dnnAA with 0.5 mM lys-azide", "source_text": "To examine whether the dnnAAs of the invention could function to improve the viability of cells containing pylRS and tRNApyl we monitored the growth and viability of a cell line, stably expressing pylRS and tRNApyl. For this assay CHO cells stably expressing pylRS and tRNApyl and an IgG directed against her2/neu containing an amber codon in the heavy chain, shown to effectively incorporate nnAA into the expressed IgG thus producing an antibody containing a nnAA, were used for this experiment. Despite a high expression level of pylRS/tRNApyl pair, this cell line has very robust cell growth characteristics when grown in medium lacking nnAA. The presence of a highly expressed target containing an amber codon likely has a protective effect on the cells by supplying them with high levels of amber codons that absorb the amber suppression activity and protects the cells from the effects of background amber suppression at essential genes. However, upon addition of the nnAA (lys-azide) to the growth medium, and activation of the amber suppression machinery, a decrease in cell growth rate is observed. […] To determine whether a dnnAA can rescue this effect, cells cultured in serum free medium were grown to a cell density of 0.5×10^6 cells/mL and subsequently treated with 0.5 mM lys azide alone or in combination with 2 Mm dnnAA. Cell viability and cell numbers were monitored daily over seven days. Cells treated with lys azide alone reached a cell density just below 1×10^6 cells/mL on day 3 after nnAA addition and remained at this density for the remainder of the assay (seven days) (FIG. 15A) The lack of growth was not likely due to loss of viability as the culture retained high viability throughout the experiment (˜70% viable cells) (FIG. 15B) Cultures treated with 2 mM Compound of formula VIIB.4, or 2 mM Formula VIIB.1 in combination with 0.5 mM lys-azide supported continued growth of the culture that reached over 1.5×10^6 cells/mL and retained a cell viability of 90%."}, "db/db mice": {"tested_on": "db/db mice", "assay": "Fed glucose blood levels in db/db mice", "assay_type": "in vivo, mouse", "details": "0.25 mg/Kg daily subcutaneously, day 3", "procedure": "To assess the potency of the PEGylated FGF21 constructs obese, db/db mice were treated daily with 0.25 mg/Kg FGF21 or 20K PEG-FGF21 and glucose levels measured in fed mice after three treatments using a handheld glucose monitor, (FIG. 7B).\nThe homozygous db/db mouse (B6.BKS(D)-Leprdb/j, Jackson labs) is a well characterized animal model for diabetes and becomes obese after 3-4 weeks of age. The animals also display elevated plasma insulin, blood sugar, and delayed wound healing. In this study, 7-8 week old, male db/db mice were fed Lab Diet 5053 Rodent Diet 20 ad libitum. Mice were acclimatized for seven days and subsequently administered PEGylated FGF21, unmodified FGF21 and vehicle (PBS) subcutaneously daily for […].\nEach mouse was administered 0.25 mg/Kg of PEG-FGF21 or unmodified FGF21 daily for three days. Fed glucose blood levels were determined by tail clip bleeding one hour after compound administration on day 3, and glucose levels measured by a handheld glucose meter (Bayer)."}, "[5]": {"details": "Tracer (wild type GFP) transfected, sample 6"}}, "note": "“And” between values parts separate entries of the source, which are not always exact repeats. Identical values can stand only once."}
{"molecule": "C=CCOC(=O)NCCCC[C@H](N)C(=O)O", "note": "[Formula V.3, (2S)-2-amino-6-{[(prop-2-en-1-yloxy)carbonyl]amino}hexanoic acid]", "values": [{"measurement": "effect on cell viability/growth", "setting": "HEK293 c18 cells", "result": "cytotstatic effect"}, {"measurement": "Positive GFP", "setting": "pylRS/tRNA pair", "result": "Yes"}, {"measurement": "MFI", "setting": "pylRS/tRNA pair", "result": "2,250,000"}, {"measurement": "MFI", "setting": "pylRS/tRNA pair; listed as V.3", "result": 2250000}]}
{"molecule": "C=CCOC(=O)NCCCCC(=O)O", "note": "[Formula VIIB.2, 5-{[(prop-2-en-1-yloxy)carbonyl]amino}pentanoic acid]", "values": [{"measurement": "reduction in background amber suppression levels", "setting": "[1]; dnnAA at 0.5 mM, 1 mM and 2 mM", "result": "reduction in the background amber suppression levels"}, {"measurement": "% Reduction at 2 mM Decoy", "setting": "[1]; reduction in GFP expression relative to control not exposed to dnnAA, 3 days", "result": 57.7, "unit": "%"}, {"measurement": "Top 300 (GM)", "setting": "platform cell line [2]; GFPY40 reporter with lys-azide, 24 hours, cells previously grown with decoy", "result": "1142 and 1149 and 1135"}, {"measurement": "# events in top gate", "setting": "platform cell line [2]; GFPY40 reporter, top 10% of GFP intensity, cells previously grown with decoy", "result": "175 and 179 and 171"}, {"measurement": "# events in top gate", "setting": "platform cell line [2]; [5]", "result": 59}, {"measurement": "Top 300 (GM)", "setting": "platform cell line [2]; [5]", "result": 529}, {"measurement": "increase in cell numbers vs cultures without dnnAA", "setting": "platform cell line [3]", "result": "two fold"}, {"measurement": "cell numbers", "setting": "platform cell line [3]; 96-well plates, ten cells per well, grown in dnnAA", "result": "3.0 ×10^6 cells/mL and 3.7 ×10^6 cells/mL"}, {"measurement": "reduction of GFP expression relative to samples lacking dnnAA (geometric mean fluorescence intensity)", "setting": "pylRS", "result": "relative reduction in GFP expression was much lower"}, {"measurement": "prevention of cytostatic effects of amber suppression activation", "setting": "[4]", "result": "prevent the cytostatic effects"}, {"measurement": "cell density", "setting": "[4]; seven days", "result": "over 3 ×10^6 cells/mL"}, {"measurement": "cell viability", "setting": "[4]; seven days", "result": "over 90%"}]}
{"molecule": "PEG-FGF21 (conjugate, UniProt Q9NSA1 29-209, looked up, PEGylated) Fibroblast growth factor 21: HPIPDSSPLLQFGGQVRQRYLYTDDAQQTEAHLEIREDGTVGGAADQSPESLLQLKALKPGVIQILGVKTSRFLCQRPDGALYGSLHFDPEACSFRELLLEDGYNVYQSEAHGLPLHLPGNKSPHRDPAPRGPARFLPLPGLPPALPEPPGILAPQPPDVGSSDPLSMVGPSQGRSPSYAS", "values": [{"measurement": "glucose level maintenance vs placebo", "setting": "db/db mice", "result": "improved glucose level maintenance as compared to placebo controls"}, {"measurement": "potency on fed glucose blood levels", "setting": "db/db mice", "result": "same potency of wild type FGF21"}]}
